Test results as given in publication PMC5218480 (PLoS ONE, 2017).

System: MV-4-11 cells
Assay: Gene expression microarray analysis (Affymetrix PrimeView) and GSEA
Format: cell-based, human
Set-up: RFU PODN (11730768_x_at) / Fold change /veh PODN (11730768_x_at) / RFU LINC00158 (11744669_a_at) / Fold change /veh LINC00158 (11744669_a_at) / RFU DUSP10 (11751237_a_at) / Fold change /veh DUSP10 (11751237_a_at) / RFU ID3 (11757404_x_at) / Fold change /veh ID3 (11757404_x_at) / RFU PLEKHG5 (11737974_s_at) / Fold change /veh PLEKHG5 (11737974_s_at) / RFU LRRC4B (11730491_at) / Fold change /veh LRRC4B (11730491_at) / RFU GIMAP4 (11747438_a_at) / Fold change /veh GIMAP4 (11747438_a_at) / RFU KRT8 (11758183_x_at) / Fold change /veh KRT8 (11758183_x_at) / RFU CNN1 (11734310_a_at) / Fold change /veh CNN1 (11734310_a_at) / RFU VPS37D (11726825_at) / Fold change /veh VPS37D (11726825_at) / RFU C10orf10 (11716522_x_at) / Fold change /veh C10orf10 (11716522_x_at) / RFU KIR2DL2 /// KIR2DL4 /// KIR2DL5A /// KIR2DL5B /// KIR2DS1 /// KIR2DS2 /// KIR2DS3 /// KIR2DS4 /// KIR3DL3 /// KIR3DL3 /// KIR3DS1 (11738374_at) / Fold change /veh KIR2DL2 /// KIR2DL4 /// KIR2DL5A /// KIR2DL5B /// KIR2DS1 /// KIR2DS2 /// KIR2DS3 /// KIR2DS4 /// KIR3DL3 /// KIR3DL3 /// KIR3DS1 (11738374_at) / RFU C1QL1 (11718748_at) / Fold change /veh C1QL1 (11718748_at) / RFU TMPRSS4 (11747572_a_at) / Fold change /veh TMPRSS4 (11747572_a_at) / RFU HAMP (11756126_x_at) / Fold change /veh HAMP (11756126_x_at) / RFU RNFT2 (11725882_a_at) / Fold change /veh RNFT2 (11725882_a_at) / RFU NR4A2 (11747474_a_at) / Fold change /veh NR4A2 (11747474_a_at) / RFU ABCC12 (11746883_a_at) / Fold change /veh ABCC12 (11746883_a_at) / RFU TMEM136 (11760407_x_at) / Fold change /veh TMEM136 (11760407_x_at) / RFU CLDN22 /// WWC2 (11732394_at) / Fold change /veh CLDN22 /// WWC2 (11732394_at) / RFU HLA-DPB1 (11760878_x_at) / Fold change /veh HLA-DPB1 (11760878_x_at) / RFU SPINT1 (11716480_a_at) / Fold change /veh SPINT1 (11716480_a_at) / RFU GAP43 (11754022_s_at) / Fold change /veh GAP43 (11754022_s_at) / RFU A4GNT (11735810_at) / Fold change /veh A4GNT (11735810_at) / RFU PRB3 (11715151_x_at) / Fold change /veh PRB3 (11715151_x_at) / RFU TUBB4B (11761932_at) / Fold change /veh TUBB4B (11761932_at) / RFU CAPN14 (11732068_a_at) / Fold change /veh CAPN14 (11732068_a_at) / RFU TMCC2 (11721928_a_at) / Fold change /veh TMCC2 (11721928_a_at) / RFU IRGQ (11745062_a_at) / Fold change /veh IRGQ (11745062_a_at) / RFU FAM174B (11720279_a_at) / Fold change /veh FAM174B (11720279_a_at) / RFU TMPRSS4 (11748680_a_at) / Fold change /veh TMPRSS4 (11748680_a_at) / RFU FAM212B (11763350_a_at) / Fold change /veh FAM212B (11763350_a_at) / RFU PLEKHG5 (11743358_a_at) / Fold change /veh PLEKHG5 (11743358_a_at) / RFU ZSCAN30 (11745921_a_at) / Fold change /veh ZSCAN30 (11745921_a_at) / RFU CMKLR1 (11741424_a_at) / Fold change /veh CMKLR1 (11741424_a_at) / RFU LOC101060620 /// MAPK8IP1 (11723275_at) / Fold change /veh LOC101060620 /// MAPK8IP1 (11723275_at) / RFU SPTSSB (11747773_x_at) / Fold change /veh SPTSSB (11747773_x_at) / RFU PRSS12 (11739890_at) / Fold change /veh PRSS12 (11739890_at) / RFU BIN1 (11741810_x_at) / Fold change /veh BIN1 (11741810_x_at) / RFU WNT11 (11732464_a_at) / Fold change /veh WNT11 (11732464_a_at) / RFU C10orf10 (11716521_a_at) / Fold change /veh C10orf10 (11716521_a_at) / RFU C5orf56 (11738089_at) / Fold change /veh C5orf56 (11738089_at) / RFU CYB561 (11721691_x_at) / Fold change /veh CYB561 (11721691_x_at) / RFU ANKRD19P (11752326_a_at) / Fold change /veh ANKRD19P (11752326_a_at) / RFU OR2T12 /// OR2T33 /// OR2T8 (11738714_s_at) / Fold change /veh OR2T12 /// OR2T33 /// OR2T8 (11738714_s_at) / RFU VCAN (11748164_a_at) / Fold change /veh VCAN (11748164_a_at) / RFU JSRP1 (11732532_at) / Fold change /veh JSRP1 (11732532_at) / RFU KRTAP10-11 (11738290_x_at) / Fold change /veh KRTAP10-11 (11738290_x_at) / RFU MYO3A (11730013_a_at) / Fold change /veh MYO3A (11730013_a_at) / RFU EBF3 (11725865_a_at) / Fold change /veh EBF3 (11725865_a_at) / RFU CAMK2N1 (11719241_x_at) / Fold change /veh CAMK2N1 (11719241_x_at) / RFU C5orf56 (11738088_a_at) / Fold change /veh C5orf56 (11738088_a_at) / RFU OLFML3 (11715873_a_at) / Fold change /veh OLFML3 (11715873_a_at) / RFU LOC100653217 /// NTM (11731650_a_at) / Fold change /veh LOC100653217 /// NTM (11731650_a_at) / RFU MAPK11 (11762145_a_at) / Fold change /veh MAPK11 (11762145_a_at) / RFU FIZ1 (11724087_x_at) / Fold change /veh FIZ1 (11724087_x_at) / RFU OASL (11726364_x_at) / Fold change /veh OASL (11726364_x_at) / RFU SOX15 (11748057_x_at) / Fold change /veh SOX15 (11748057_x_at) / RFU CD79A (11719716_a_at) / Fold change /veh CD79A (11719716_a_at) / RFU HIST1H1D (11736915_at) / Fold change /veh HIST1H1D (11736915_at) / RFU CASKIN2 (11723855_a_at) / Fold change /veh CASKIN2 (11723855_a_at) / RFU LOC730098 (11760151_x_at) / Fold change /veh LOC730098 (11760151_x_at) / RFU OR4N2 (11742367_at) / Fold change /veh OR4N2 (11742367_at) / RFU PRRT2 (11749266_a_at) / Fold change /veh PRRT2 (11749266_a_at) / RFU SNX32 (11753110_a_at) / Fold change /veh SNX32 (11753110_a_at) / RFU CDHR5 (11726645_a_at) / Fold change /veh CDHR5 (11726645_a_at) / RFU RCAN1 (11760418_a_at) / Fold change /veh RCAN1 (11760418_a_at) / RFU FAM167A (11723789_a_at) / Fold change /veh FAM167A (11723789_a_at) / RFU FAM26E (11764081_at) / Fold change /veh FAM26E (11764081_at) / RFU ISYNA1 (11749810_s_at) / Fold change /veh ISYNA1 (11749810_s_at) / RFU ACY1 (11761880_at) / Fold change /veh ACY1 (11761880_at) / RFU 11764098_at / Fold change /veh 11764098_at / RFU SAMD14 (11745864_x_at) / Fold change /veh SAMD14 (11745864_x_at) / RFU NPB (11741838_a_at) / Fold change /veh NPB (11741838_a_at) / RFU TMPRSS6 (11731388_a_at) / Fold change /veh TMPRSS6 (11731388_a_at) / RFU KRTAP10-2 (11738614_at) / Fold change /veh KRTAP10-2 (11738614_at) / RFU ARHGAP8 /// PRR5-ARHGAP8 (11727945_x_at) / Fold change /veh ARHGAP8 /// PRR5-ARHGAP8 (11727945_x_at) / RFU KRTAP5-7 /// NADSYN1 (11734609_at) / Fold change /veh KRTAP5-7 /// NADSYN1 (11734609_at) / RFU RASL12 (11751679_a_at) / Fold change /veh RASL12 (11751679_a_at) / RFU CDKN2B (11736163_a_at) / Fold change /veh CDKN2B (11736163_a_at) / RFU PRF1 (11729649_at) / Fold change /veh PRF1 (11729649_at) / RFU, ZNF638 /// ZNF638-IT1 / Fold change vs veh, ZNF638 /// ZNF638-IT1 / RFU, PANK3 / Fold change vs veh, PANK3 / RFU, SH3YL1 / Fold change vs veh, SH3YL1 / RFU, ZEB2 / Fold change vs veh, ZEB2 / RFU, NRIP1 / Fold change vs veh, NRIP1 / RFU, PTTG1IP / Fold change vs veh, PTTG1IP / RFU, CAPN2 / Fold change vs veh, CAPN2 / RFU, MED14 / Fold change vs veh, MED14 / RFU, SNORA58 / Fold change vs veh, SNORA58 / RFU, C1orf63 / Fold change vs veh, C1orf63 / RFU, LRRFIP1 / Fold change vs veh, LRRFIP1 / RFU, NDUFAF7 / Fold change vs veh, NDUFAF7 / RFU, SLC12A2 / Fold change vs veh, SLC12A2 / RFU, IBTK / Fold change vs veh, IBTK / RFU, ESF1 / Fold change vs veh, ESF1 / Fold change vs veh, TMEM50B / RFU, TAOK1 / Fold change vs veh, TAOK1 / RFU, ACBD3 / Fold change vs veh, ACBD3 / RFU, TMA16 / Fold change vs veh, TMA16 / RFU, RWDD3 / Fold change vs veh, RWDD3 / RFU, BCAT1 / Fold change vs veh, BCAT1 / RFU, EDEM3 / Fold change vs veh, EDEM3 / RFU, TMEM33 / Fold change vs veh, TMEM33 / RFU, WDR75 / Fold change vs veh, WDR75 / RFU, AHCTF1 / Fold change vs veh, AHCTF1 / RFU, TFRC / Fold change vs veh, TFRC / RFU, ZDHHC17 / Fold change vs veh, ZDHHC17 / RFU, NOM1 / Fold change vs veh, NOM1 / RFU, ARL8B / Fold change vs veh, ARL8B / RFU, ZBTB11 / Fold change vs veh, ZBTB11 / RFU, TAMM41 / Fold change vs veh, TAMM41 / RFU, KIAA1704 /// LOC100996395 / Fold change vs veh, KIAA1704 /// LOC100996395 / RFU, ING1 / Fold change vs veh, ING1 / RFU, TRMT61B / Fold change vs veh, TRMT61B / RFU, FUBP3 / Fold change vs veh, FUBP3 / RFU, TP53 / Fold change vs veh, TP53 / RFU, TNKS2 / Fold change vs veh, TNKS2 / RFU, ZFP14 / Fold change vs veh, ZFP14 / RFU, ACTR2 / Fold change vs veh, ACTR2 / RFU, PPP3R1 / Fold change vs veh, PPP3R1 / RFU, PIK3R1 / Fold change vs veh, PIK3R1 / RFU, HNRNPA1 / Fold change vs veh, HNRNPA1 / RFU, RNF170 / Fold change vs veh, RNF170 / RFU, ZNF28 / Fold change vs veh, ZNF28 / RFU, RNGTT / Fold change vs veh, RNGTT / RFU, OGT / Fold change vs veh, OGT / RFU, BRD1 / Fold change vs veh, BRD1 / RFU, MARS / Fold change vs veh, MARS / RFU, ZNF655 / Fold change vs veh, ZNF655 / RFU, FAHD1 / Fold change vs veh, FAHD1 / RFU, BDP1 / Fold change vs veh, BDP1 / RFU, LRRCC1 / Fold change vs veh, LRRCC1 / RFU, ARID1A / Fold change vs veh, ARID1A / RFU, ZNF146 / Fold change vs veh, ZNF146 / RFU, ZNF330 / Fold change vs veh, ZNF330 / RFU, GPN3 / Fold change vs veh, GPN3 / RFU, C9orf123 / Fold change vs veh, C9orf123 / RFU, N4BP2L2 / Fold change vs veh, N4BP2L2 / RFU, ARFIP1 / Fold change vs veh, ARFIP1 / RFU, FAM179B / Fold change vs veh, FAM179B / RFU, BCL10 / Fold change vs veh, BCL10 / RFU, UHRF1BP1L / Fold change vs veh, UHRF1BP1L / RFU, BET1 / Fold change vs veh, BET1 / RFU, CNOT2 / Fold change vs veh, CNOT2 / RFU, ZNF268 / Fold change vs veh, ZNF268 / Fold change vs veh, ZNF507 / RFU, DGCR2 / Fold change vs veh, DGCR2 / RFU, WDSUB1 / Fold change vs veh, WDSUB1 / Fold change vs veh, HSP90B1 /// MIR3652 / RFU, ADSS / Fold change vs veh, ADSS / RFU, GK / Fold change vs veh, GK / RFU, ZNF148 / Fold change vs veh, ZNF148 / RFU, TAF9 / Fold change vs veh, TAF9 / RFU, SLC1A5 / Fold change vs veh, SLC1A5 / RFU, SLMO2 / Fold change vs veh, SLMO2 / RFU, ABCC4 / Fold change vs veh, ABCC4 / RFU, LOC101060439 /// RAP1B / Fold change vs veh, LOC101060439 /// RAP1B / RFU, RFX7 / Fold change vs veh, RFX7 / RFU, GTPBP10 / Fold change vs veh, GTPBP10 / RFU, CNEP1R1 / Fold change vs veh, CNEP1R1 / RFU, BIVM-ERCC5 /// ERCC5 / Fold change vs veh, BIVM-ERCC5 /// ERCC5 / RFU, ILF3 / Fold change vs veh, ILF3 / RFU 11762660_at / Fold change /veh 11762660_at / RFU VCAN (11757783_s_at) / Fold change /veh VCAN (11757783_s_at) / RFU DDX43 (11728927_at) / Fold change /veh DDX43 (11728927_at) / RFU KRT8 (11758188_x_at) / Fold change /veh KRT8 (11758188_x_at) / RFU NKD1 (11759106_at) / Fold change /veh NKD1 (11759106_at) / RFU SRD5A1 (11742802_a_at) / Fold change /veh SRD5A1 (11742802_a_at) / RFU TPSAB1 /// TPSB2 (11721975_s_at) / Fold change /veh TPSAB1 /// TPSB2 (11721975_s_at) / RFU GSTM3 (11746129_a_at) / Fold change /veh GSTM3 (11746129_a_at) / RFU IL23R (11737362_x_at) / Fold change /veh IL23R (11737362_x_at) / RFU TMEM51 (11727254_a_at) / Fold change /veh TMEM51 (11727254_a_at) / RFU PIWIL2 (11732686_x_at) / Fold change /veh PIWIL2 (11732686_x_at) / RFU ORM1 (11744905_x_at) / Fold change /veh ORM1 (11744905_x_at) / RFU CCDC152 (11743942_at) / Fold change /veh CCDC152 (11743942_at) / RFU ECM1 (11717891_a_at) / Fold change /veh ECM1 (11717891_a_at) / RFU IL23R (11748794_a_at) / Fold change /veh IL23R (11748794_a_at) / RFU TNFAIP8L3 (11732012_x_at) / Fold change /veh TNFAIP8L3 (11732012_x_at) / RFU MBOAT4 (11741988_at) / Fold change /veh MBOAT4 (11741988_at) / RFU 11764193_at / Fold change /veh 11764193_at / RFU TMEM53 (11763286_at) / Fold change /veh TMEM53 (11763286_at) / RFU MAGEB2 (11727129_at) / Fold change /veh MAGEB2 (11727129_at) / RFU TMEM200A (11744735_a_at) / Fold change /veh TMEM200A (11744735_a_at) / RFU CCDC152 (11751479_a_at) / Fold change /veh CCDC152 (11751479_a_at) / RFU FAM211A (11726209_a_at) / Fold change /veh FAM211A (11726209_a_at) / RFU RGS16 (11746705_a_at) / Fold change /veh RGS16 (11746705_a_at) / RFU VCAN (11755009_s_at) / Fold change /veh VCAN (11755009_s_at) / RFU RHOB (11743442_s_at) / Fold change /veh RHOB (11743442_s_at) / RFU RGS16 (11720943_a_at) / Fold change /veh RGS16 (11720943_a_at) / RFU RGS16 (11720944_at) / Fold change /veh RGS16 (11720944_at) / RFU, VPS4B / Fold change vs veh, VPS4B / RFU, CREB1 / Fold change vs veh, CREB1 / RFU, DNAJC13 / Fold change vs veh, DNAJC13 / RFU, GNAQ / Fold change vs veh, GNAQ / RFU, CDK5R1 / Fold change vs veh, CDK5R1 / RFU, ZRANB3 / Fold change vs veh, ZRANB3 / RFU, CUL4A / Fold change vs veh, CUL4A / RFU, CCNY / Fold change vs veh, CCNY / RFU, UFL1 / Fold change vs veh, UFL1 / RFU, COG3 / Fold change vs veh, COG3 / RFU, DIAPH2 / Fold change vs veh, DIAPH2 / RFU, SKA2 / Fold change vs veh, SKA2 / RFU, AFF3 / Fold change vs veh, AFF3 / RFU, LMF1 / Fold change vs veh, LMF1 / RFU, IPO11 / Fold change vs veh, IPO11 / RFU, DFFB / Fold change vs veh, DFFB / RFU, FOXP1 / Fold change vs veh, FOXP1 / RFU, CARD8 / Fold change vs veh, CARD8 / RFU, STRN3 / Fold change vs veh, STRN3 / RFU, ADK / Fold change vs veh, ADK / RFU, RASSF2 / Fold change vs veh, RASSF2 / RFU, WIPF1 / Fold change vs veh, WIPF1 / RFU, LARP1B / Fold change vs veh, LARP1B / RFU, RASA1 / Fold change vs veh, RASA1 / RFU, RB1 / Fold change vs veh, RB1 / RFU, PPFIA1 / Fold change vs veh, PPFIA1 / RFU, MAT2A / Fold change vs veh, MAT2A / RFU, CCT5 / Fold change vs veh, CCT5 / RFU, WDR92 / Fold change vs veh, WDR92 / RFU, CUX1 / Fold change vs veh, CUX1 / RFU, TTC7A / Fold change vs veh, TTC7A / RFU, TMEM135 / Fold change vs veh, TMEM135 / RFU, DEPTOR / Fold change vs veh, DEPTOR / RFU, CPM / Fold change vs veh, CPM / RFU, DNAJB6 / Fold change vs veh, DNAJB6 / RFU, CACNA2D3 / Fold change vs veh, CACNA2D3 / RFU, DTX4 / Fold change vs veh, DTX4 / RFU, TFCP2 / Fold change vs veh, TFCP2 / RFU, GMCL1 /// GMCL1P1 / Fold change vs veh, GMCL1 /// GMCL1P1 / RFU, AEBP2 / Fold change vs veh, AEBP2 / RFU, SNHG1 /// SNORD22 /// SNORD25 /// SNORD26 /// SNORD27 /// SNORD28 /// SNORD29 /// SNORD31 / Fold change vs veh, SNHG1 /// SNORD22 /// SNORD25 /// SNORD26 /// SNORD27 /// SNORD28 /// SNORD29 /// SNORD31 / Fold change (Aza/veh), C12orf56 (ProbeSet 11735607_a_at) / Fold change (ACY-1035/veh), C12orf56 (ProbeSet 11735607_a_at) / Fold change (Aza/veh), FGFR1OP (ProbeSet 11751329_s_at) / Fold change (ACY-1035/veh), FGFR1OP (ProbeSet 11751329_s_at) / Fold change (Aza/veh), VPS36 (ProbeSet 11739960_a_at) / Fold change (ACY-1035/veh), VPS36 (ProbeSet 11739960_a_at) / RFU SYPL1 (11715823_x_at) / Fold change /veh SYPL1 (11715823_x_at) / RFU IGFBP7 (11715501_s_at) / Fold change /veh IGFBP7 (11715501_s_at) / RFU REEP3 (11722064_at) / Fold change /veh REEP3 (11722064_at) / RFU IGLL1 (11728026_x_at) / Fold change /veh IGLL1 (11728026_x_at): dose or concentration left out as unconfirmed
Settings: MV-4-11 cells, 48 hours

Nc1ccc(-c2cccs2)cc1NC(=O)c1ccc2c(c1)cc(C1CC1)n2CCN1CCOCC1 [ACY-1035]
Fold change /veh CDKN2B (11736163_a_at): 1.20
